Source: US8722683B2, “Benzodioxole piperazine compounds” (Hoffmann LA-Roche Inc., priority 2011, dated 2014)

What was measured:
D2 receptor = D2 receptor (Homo sapiens (Human), UniProt P14416); experiment: Radioligand binding ([3H]-spiperone) to cloned D2 receptor expressed in HEK-293 EBNA cells; settings: HEK293 EBNA membranes, 0.7 nM [3H]-spiperone
Method: (§1) HEK293 EBNA cells were transiently transfected with expression plasmids encoding for the human D2 or D3 or for the human 5-HT2A receptor, respectively. The cells were harvested 48 h post-transfection, washed three times with cold PBS and stored at −80° C. prior to use. The pellet was suspended in cold 50 mM Tris-HCl buffer containing 10 mM EDTA (pH 7.4) and was homogenized with a Polytron (Kinematica AG, Basel, Switzerland) for 20-30 sec at 12.000 rpm. After centrifugation at 48.000×g for 30 min at 4° C., the pellet was resuspended in cold 10 mM Tris-HCl buffer containing 0.1 mM EDTA (pH 7.4), homogenized, and centrifuged as above. This pellet was further resuspended in a smaller volume of ice cold 10 mM Tris-HCl buffer containing 0.1 mM EDTA (pH 7.4) and homogenized with a Polytron for 20-30 sec at 12.000 rpm. The protein content of this homogenate was determined with the Bio-Rad (Bradford) Protein Assay (Biorad Laboratories GmbH, München, Germany) according to the instructions of the manufacturer using gamma globulin as the standard. This homogenate was stored at −80° C. in aliquots and thawed immediately prior to use.
(§2) Radioligand Binding Assay
(§3) Aliquots of membrane preparations were thawed at RT, resupended in assay buffer (D2, D3: 50 mM Tris-HCl, 120 mM NaCl, 5 mM MgCl2, 1 mM EDTA, 5 mM KCl, 1.5 mM CaCl2, pH=7.4; 5-HT2A: 50 mM Tris-HCl, 10 mM MgCl2, 1 mM EGTA, pH=7.4), homogenized with a Polytron for 20-30 sec at 12.000 rpm and adjusted to a final concentration of approximately 7.5 μg protein/well (D2, D3) and 15 μg protein/well (5-HT2A), respectively.
The binding affinity (Ki) of the compounds was determined using radioligand binding. […] The nonspecific binding was determined with equally composed reaction mixtures in the presence of 10 μM unlabelled spiperone. Per well 45 μl of Microscint 40 (Perkin Elmer, Schwerzenbach, Switzerland) was added, plates for sealed, shaken for 20 min and counted for 3 min on a Topcount Microplate Scintillation Counter (Canberra Packard SA, Zürich, Switzerland) with quenching correction.
(§4) The CPM value for each duplicate of a concentration of competing compound was averaged (y1), then the % specific binding was calculated according to the equation (((y1−non-specific)/(total binding−non-specific))×100). Graphs were plotted with the % specific binding using XLfit, a curve fitting program that iteratively plots the data using Levenberg-Marquardt algorithm. The single site competition analysis equation used was y=A+((B−A)/(1+((x/C)D))), where y is the % specific binding, A is the minimum y, B is the maximum y, C is the IC50, x is the log 10 of the concentration of the competing compound and D is the slope of the curve (the Hill Coefficient). […] The affinity constant (Ki) was calculated using the Cheng-Prusoff equation Ki=(IC50/1+([L]/Kd), where [L] is the concentration of radioligand and Kd is the dissociation constant of the radioligand at the receptor as determined by the saturation isotherm.

D3 receptor = D3 receptor (Homo sapiens (Human), UniProt P35462); experiment: Radioligand binding ([3H]-spiperone) to cloned D3 receptor expressed in HEK-293 EBNA cells; settings: HEK293 EBNA membranes, 0.5 nM [3H]-spiperone
Chain of D3 receptor (P35462 whole entry): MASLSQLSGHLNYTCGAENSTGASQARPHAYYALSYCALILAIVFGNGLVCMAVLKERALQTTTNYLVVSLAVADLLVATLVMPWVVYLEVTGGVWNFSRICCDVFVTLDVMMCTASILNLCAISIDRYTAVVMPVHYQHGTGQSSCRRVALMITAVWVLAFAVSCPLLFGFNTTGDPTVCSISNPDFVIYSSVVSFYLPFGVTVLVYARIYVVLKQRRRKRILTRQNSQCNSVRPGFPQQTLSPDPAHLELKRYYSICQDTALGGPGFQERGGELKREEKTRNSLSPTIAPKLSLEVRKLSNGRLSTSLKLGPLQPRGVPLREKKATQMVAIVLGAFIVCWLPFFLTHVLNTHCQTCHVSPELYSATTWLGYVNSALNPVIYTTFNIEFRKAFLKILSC
Method: as §1, §2, §3
The binding affinity (Ki) of the compounds was determined using radioligand binding. […] At the end of the incubation, the reaction mixtures were filtered on to unifilter 96-well white microplates with bonded GF/C filters (Packard BioScience, Zürich, Switzerland; preincubated for 1 h in 0.1% polyethylenimine (PEI) in assay buffer) with a Filtermate 196 harvester (Packard BioScience) and washed 3 times with cold assay buffer. The nonspecific binding was determined with equally composed reaction mixtures in the presence of 10 μM unlabelled spiperone. Per well 45 μl of Microscint 40 (Perkin Elmer, Schwerzenbach, Switzerland) was added, plates for sealed, shaken for 20 min and counted for 3 min on a Topcount Microplate Scintillation Counter (Canberra Packard SA, Zürich, Switzerland) with quenching correction.
as §4

Chain of D2 receptor (P14416 whole entry): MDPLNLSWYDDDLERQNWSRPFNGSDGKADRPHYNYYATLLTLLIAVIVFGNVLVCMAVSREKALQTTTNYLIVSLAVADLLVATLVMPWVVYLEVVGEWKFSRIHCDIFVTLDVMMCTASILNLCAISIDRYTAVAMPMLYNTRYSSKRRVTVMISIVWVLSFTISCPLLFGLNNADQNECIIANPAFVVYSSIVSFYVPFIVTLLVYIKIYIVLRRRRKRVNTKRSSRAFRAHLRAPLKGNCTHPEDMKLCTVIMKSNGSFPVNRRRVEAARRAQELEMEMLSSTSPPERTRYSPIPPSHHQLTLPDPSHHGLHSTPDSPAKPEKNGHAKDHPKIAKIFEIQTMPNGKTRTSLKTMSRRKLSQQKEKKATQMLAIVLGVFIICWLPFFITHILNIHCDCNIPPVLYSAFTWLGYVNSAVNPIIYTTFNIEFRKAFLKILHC

Row | Ki (D2 receptor) [nM] | Ki (D3 receptor) [nM] | SMILES
1 | 220 |  | O=C(C[C@@H]1CCCCO1)N[C@H]1CC[C@H](CCN2CCN(c3cccc4c3OCO4)CC2)CC1 (single isomer, unassigned) [Example 30, Trans-N-{4-[2-(4-Benzo[1,3]dioxol-4-yl-piperazin-1-yl)-ethyl]-cyclohexyl}-2-(S) or (R)-tetrahydro-pyran-2-yl-acetamide]
2 | 310 |  | O=C(C[C@H]1CCCCO1)N[C@H]1CC[C@H](CCN2CCN(c3cccc4c3OCO4)CC2)CC1 (single isomer, unassigned) [Example 31, Trans-N-{4-[2-(4-Benzo[1,3]dioxol-4-yl-piperazin-1-yl)-ethyl]-cyclohexyl}-2-(R) or (S)-tetrahydro-pyran-2-yl-acetamide]
3 | 250 | 21.4 | COC(C)C(=O)N[C@H]1CC[C@H](CCN2CCN(c3cccc4c3OCO4)CC2)CC1 (stereo in doubt) [Example 25, Trans(S)—N-{4-[2-(4-Benzo[1,3]dioxol-4-yl-piperazin-1-yl)-ethyl]-cyclohexyl}-2-methoxy-propionamide]
4 | 150 | 4.9 | COC(C)C(=O)N[C@H]1CC[C@H](CCN2CCN(c3cccc4c3OCO4)CC2)CC1 (stereo in doubt) [Example 26, Trans(R)—N-{4-[2-(4-Benzo[1,3]dioxol-4-yl-piperazin-1-yl)-ethyl]-cyclohexyl}-2-methoxy-propionamide]
5 | 67.3 | 1.15 | CC(=O)N[C@H]1CC[C@H](CCN2CCN(c3cccc4c3OCO4)CC2)CC1 [Example 1, Trans-N-{4-[2-(4-Benzo[1,3]dioxol-4-yl-piperazin-1-yl)-ethyl]-cyclohexyl}-acetamide]
6 | 173 | 1.88 | COCCC(=O)N[C@H]1CC[C@H](CCN2CCN(c3cccc4c3OCO4)CC2)CC1 [Example 2, Trans-N-{4-[2-(4-Benzo[1,3]dioxol-4-yl-piperazin-1-yl)-ethyl]-cyclohexyl}-3-methoxy-propionamide]
7 | 189 | 3.1 | O=C(CC1CCCO1)N[C@H]1CC[C@H](CCN2CCN(c3cccc4c3OCO4)CC2)CC1 (stereo partly drawn) [Example 6, Trans-N-{4-[2-(4-Benzo[1,3]dioxol-4-yl-piperazin-1-yl)-ethyl]-cyclohexyl}-2-(tetrahydro-furan-2-yl)-acetamide]
8 | 74.5 | 1.28 | CCC(=O)N[C@H]1CC[C@H](CCN2CCN(c3cccc4c3OCO4)CC2)CC1 [Example 7, Trans-N-{4-[2-(4-Benzo[1,3]dioxol-4-yl-piperazin-1-yl)-ethyl]-cyclohexyl}-propionamide]
9 | 142 | 1.23 | O=C(CC1CC1)N[C@H]1CC[C@H](CCN2CCN(c3cccc4c3OCO4)CC2)CC1 [Example 8, Trans-N-{4-[2-(4-Benzo[1,3]dioxol-4-yl-piperazin-1-yl)-ethyl]-cyclohexyl}-2-cyclopropyl-acetamide]
10 | 238 | 4.37 | COCC(=O)N[C@H]1CC[C@H](CCN2CCN(c3cccc4c3OCO4)CC2)CC1 [Example 9, Trans-N-{4-[2-(4-Benzo[1,3]dioxol-4-yl-piperazin-1-yl)-ethyl]-cyclohexyl}-2-methoxy-acetamide]
11 | 184 | 1.69 | O=C(CO)N[C@H]1CC[C@H](CCN2CCN(c3cccc4c3OCO4)CC2)CC1 [Example 10, Trans-N-{4-[2-(4-Benzo[1,3]dioxol-4-yl-piperazin-1-yl)-ethyl]-cyclohexyl}-2-hydroxy-acetamide]
12 | 269 | 9.99 | O=C(N[C@H]1CC[C@H](CCN2CCN(c3cccc4c3OCO4)CC2)CC1)c1ccccc1 [Example 11, Trans-N-{4-[2-(4-Benzo[1,3]dioxol-4-yl-piperazin-1-yl)-ethyl]-cyclohexyl}-benzamide]
13 | 68.5 | 1.29 | COC(=O)N[C@H]1CC[C@H](CCN2CCN(c3cccc4c3OCO4)CC2)CC1 [Example 12, Trans-{4-[2-(4-Benzo[1,3]dioxol-4-yl-piperazin-1-yl)-ethyl]-cyclohexyl}-carbamic acid methyl ester]
14 | 314 | 1.34 | Cc1cc(CC(=O)N[C@H]2CC[C@H](CCN3CCN(c4cccc5c4OCO5)CC3)CC2)on1 [Example 13, Trans-N-{4-[2-(4-Benzo[1,3]dioxol-4-yl-piperazin-1-yl)-ethyl]-cyclohexyl}-2-(3-methyl-isoxazol-5-yl)-acetamide]
15 | 76 | 0.91 | N#CCC(=O)N[C@H]1CC[C@H](CCN2CCN(c3cccc4c3OCO4)CC2)CC1 [Example 14, Trans-N-{4-[2-(4-Benzo[1,3]dioxol-4-yl-piperazin-1-yl)-ethyl]-cyclohexyl}-2-cyano-acetamide]
16 | 160 | 3.48 | O=C(CC1(O)CCCCC1)N[C@H]1CC[C@H](CCN2CCN(c3cccc4c3OCO4)CC2)CC1 [Example 15, Trans-N-{4-[2-(4-Benzo[1,3]dioxol-4-yl-piperazin-1-yl)-ethyl]-cyclohexyl}-2-(1-hydroxy-cyclohexyl)-acetamide]
17 | 91.2 | 1.57 | O=C(CC(F)(F)F)N[C@H]1CC[C@H](CCN2CCN(c3cccc4c3OCO4)CC2)CC1 [Example 16, Trans-N-{4-[2-(4-Benzo[1,3]dioxol-4-yl-piperazin-1-yl)-ethyl]-cyclohexyl}-3,3,3-trifluoro-propionamide]
18 | 137 | 1.81 | CC(C)C(=O)N[C@H]1CC[C@H](CCN2CCN(c3cccc4c3OCO4)CC2)CC1 [Example 17, Trans-N-{4-[2-(4-Benzo[1,3]dioxol-4-yl-piperazin-1-yl)-ethyl]-cyclohexyl}-isobutyramide]
19 | 133 | 2.28 | CC(C)CC(=O)N[C@H]1CC[C@H](CCN2CCN(c3cccc4c3OCO4)CC2)CC1 [Example 18, Trans-N-{4-[2-(4-Benzo[1,3]dioxol-4-yl-piperazin-1-yl)-ethyl]-cyclohexyl}-3-methyl-butyramide]
20 | 84.9 |  | O=C(N[C@H]1CC[C@H](CCN2CCN(c3cccc4c3OCO4)CC2)CC1)C1(O)CCC1 [Example 35, 1-Hydroxy-cyclobutanecarboxylic acid-trans-N-{4-[2-(4-benzo[1,3]dioxol-4-yl-piperazin-1-yl)-ethyl]-cyclohexyl}-amide]
21 | 117 |  | O=C(N[C@H]1CC[C@H](CCN2CCN(c3cccc4c3OCO4)CC2)CC1)C1CCCO1 (stereo partly drawn) [Example 44, Tetrahydro-furan-2-carboxylic acid-trans-N-{4-[2-(4-benzo[1,3]dioxol-4-yl-piperazin-1-yl)-ethyl]-cyclohexyl}-amide]
22 |  | 3.37 | CO[C@H]1CC[C@H](CC(=O)N[C@H]2CC[C@H](CCN3CCN(c4cccc5c4OCO5)CC3)CC2)CC1 [Example 56, Trans-N-{4-[2-(4-Benzo[1,3]dioxol-4-yl-piperazin-1-yl)-ethyl]-cyclohexyl}-2-(4-methoxy-cyclohexyl)-acetamide]
23 |  | 2.88 | O=S(=O)(N[C@H]1CC[C@H](CCN2CCN(c3cccc4c3OCO4)CC2)CC1)c1ccccc1 [Example 67, N-trans-{4-[2-(4-Benzo[1,3]dioxol-4-yl-piperazin-1-yl)-ethyl]-cyclohexyl}-benzenesulfonamide]
24 |  | 2.25 | Cn1cnc(S(=O)(=O)N[C@H]2CC[C@H](CCN3CCN(c4cccc5c4OCO5)CC3)CC2)c1 [Example 69, 1-Methyl-1H-imidazole-4-sulfonic acid-trans-N-{4-[2-(4-benzo[1,3]dioxol-4-yl-piperazin-1-yl)-ethyl]-cyclohexyl}-amide]
